Results from patent US20240307294A1, “Topical Composition and Carrier for Administration of Pharmaceutically or Cosmetically Active Ingredients” (EMOLLIVET AB, priority 2013, published 2024).

Test: Carrier dissolution capacity (admixing controlled amounts of active agent)
Type: physicochemical
Method: The dissolution capacity of different carriers was tested by admixing controlled amounts of active agent.

[1] = carrier Lipoid S100 0.0 / Urea 2.0 / Ethanol 98.0 % w/w
[2] = carrier Lipoid S100 5.0 / Urea 2.0 / Ethanol 93.0 % w/w
[3] = carrier Lipoid S100 10.0 / Urea 2.0 / Ethanol 88.0 % w/w
[4] = carrier Lipoid S100 20.0 / Urea 2.0 / Ethanol 78.0 % w/w
[5] = carrier Lipoid S100 30.0 / Urea 2.0 / Ethanol 68.0 % w/w

Row | Molecule | Highest complete dissolution [1] | Lowest incomplete dissolution [1] | Lowest incomplete dissolution (carrier Lipoid S100 5.0 / Urea 1.0 / Ethanol 94.0 % w/w) | Highest complete dissolution [2] | Lowest incomplete dissolution [2] | Highest complete dissolution [3] | Lowest incomplete dissolution [3] | Highest complete dissolution [4] | Lowest incomplete dissolution [4] | Highest complete dissolution [5] | Lowest incomplete dissolution [5] | Highest complete dissolution (carrier Lipoid S100 49.5 / Urea 1.0 / Ethanol 49.5 % w/w) | Highest complete dissolution (carrier Lipoid S100 3.4 / Urea 2.0 / Ethanol 94.7 % w/w)
1 | C[C@]12CCC(=O)C=C1CC[C@@H]1[C@@H]2[C@@H](O)C[C@@]2(C)[C@H]1CC[C@]2(O)C(=O)CO [Hydrocortisone] | 2.09 % w/w | 2.25 % w/w | 2.28 % w/w | 2.22 % w/w | 2.37 % w/w | 2.48 % w/w | 2.83 % w/w | 2.82 % w/w | 3.22 % w/w | 3.19 % w/w | 3.50 % w/w | 2.89 % w/w | 
2 | Calcium pantothenate | 0.27 % w/w | 0.40 % w/w |  | 0.50 % w/w |  | 0.98 % w/w |  | 1.81 % w/w |  | 3.17 % w/w |  |  | 0.41 % w/w
